Our source for the IC50 values is patent US9422293B2 (priority 2006, dated 2016).

The test deals with rat TRPV1 (Rattus norvegicus (Rat), UniProt O35433). The settings on record: read-out: Rat IC50.

SMILES strings stand for the structures. Where a name gives a salt, the structure may show the parent alone. Read-outs that look alike come from different tables or passages of the source.

rat TRPV1, sequence (O35433 whole entry): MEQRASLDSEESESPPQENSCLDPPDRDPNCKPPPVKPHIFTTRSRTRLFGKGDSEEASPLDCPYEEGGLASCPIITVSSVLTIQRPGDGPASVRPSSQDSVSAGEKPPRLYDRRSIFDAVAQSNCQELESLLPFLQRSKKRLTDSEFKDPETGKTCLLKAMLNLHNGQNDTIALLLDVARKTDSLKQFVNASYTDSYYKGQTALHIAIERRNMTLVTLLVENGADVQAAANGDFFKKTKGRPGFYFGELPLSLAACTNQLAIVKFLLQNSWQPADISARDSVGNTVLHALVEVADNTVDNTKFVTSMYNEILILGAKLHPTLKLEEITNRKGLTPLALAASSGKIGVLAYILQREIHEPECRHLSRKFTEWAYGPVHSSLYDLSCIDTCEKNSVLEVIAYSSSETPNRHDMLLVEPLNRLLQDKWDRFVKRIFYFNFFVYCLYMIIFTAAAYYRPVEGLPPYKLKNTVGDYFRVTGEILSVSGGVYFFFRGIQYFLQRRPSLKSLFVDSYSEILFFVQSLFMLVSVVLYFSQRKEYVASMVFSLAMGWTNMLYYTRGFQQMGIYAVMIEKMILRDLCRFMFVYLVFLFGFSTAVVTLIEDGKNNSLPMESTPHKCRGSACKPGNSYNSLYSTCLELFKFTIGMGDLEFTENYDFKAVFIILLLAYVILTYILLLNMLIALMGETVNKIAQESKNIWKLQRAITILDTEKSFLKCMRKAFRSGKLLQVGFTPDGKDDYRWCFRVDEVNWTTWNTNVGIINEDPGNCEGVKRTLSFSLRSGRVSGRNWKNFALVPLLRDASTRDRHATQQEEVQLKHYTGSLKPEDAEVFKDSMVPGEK
Protocol: Biological Testing: Functional Assay: Block of Capsaicin-Induced Ca^2+ Influx A. Human Assay
Cells were passaged frequently, every 3-5 days, to avoid overgrowth, depletion of essential medium components, or acidic medium exposure. Cells were passaged using a brief wash in 0.05% trypsin with 1 mM EDTA, followed by dissociation in divalent-free phosphate-buffered saline (Hyclone #SH30028.02). […] The assay buffer was composed of 130 mM NaCl, 2 mM KCl, 2 mM MgCl2, 10 mM HEPES, 5 mM glucose, and either 2 mM or 20 μM CaCl2. On the day of the experiment, the culture medium was replaced with 2 mM calcium assay buffer using an automated plate washer (ELx405; Biotek, VT). […] After loading the cells, the dye solution was replaced with 50 μL/well of 20 μM calcium assay buffer using the ELx405 plate washer. Test compounds (50 μL/well) were added to the plate and incubated for 30 min. […] The IC50 values were determined. […] The contents of the wells were mixed 3 times (40 μL mix volume) immediately after the additions were made. Concentration dependence of block was determined by exposing each well of cells in duplicate rows of a 96 well plate to a serial dilution of test compound. The concentration series usually started at 10 μM with a three-fold serial decrement in concentration. The magnitude of the capsaicin response was determined by measuring the change in fluo3 fluorescence before and 100 seconds after the addition of the agonist. Data were analyzed using a non-linear regression program (Origin; OriginLab, MA). IC50 values shown are the average (mean) of the results obtained.
The assay was performed as described above, using HEK293 cells transfected with rat TRPV1 (rTRPV1/HEK293). […] IC50 values shown are the average (mean) of the results obtained.

For `CC(O)CSc1nc2c(c(Nc3ccc(S(=O)(=O)C(F)(F)F)cc3)n1)CCN(c1ncccc1C(F)(F)F)CC2` (centres unmarked) [Example 362, 1-({7-[3-(Trifluoromethyl)pyridin-2-yl]-4-({4-[(trifluoromethyl)sulfonyl]phenyl}amino)-6,7,8,9-tetrahydro-5H-pyrimido[4,5-d]azepin-2-yl}sulfanyl)propan-2-ol], the half-maximal inhibitory concentration (IC50) came out at 190 nM.
On the same count and under the same terms, with `CN(C)c1nc2c(c(Nc3ccc([N+](=O)[O-])cc3)n1)CCN(c1ncccc1C(F)(F)F)CC2` [Example 72B, N^2,N^2-Dimethyl-N^4-(4-nitro-phenyl)-7-(3-trifluoromethyl-pyridin-2-yl)-6,7,8,9-tetrahydro-5H-pyrimido[4,5-d]azepine-2,4-diamine trifluoroacetic acid salt] the figure was 180 nM.
On the same count and under the same terms, in the case of `O[C@H]1CCCN(c2nc3c(c(Nc4ccc(C(F)(F)F)cc4)n2)CCN(c2ncccc2C(F)(F)F)CC3)C1` [Example 94B, (S)-1-[4-(4-Trifluoromethyl-phenylamino)-7-(3-trifluoromethyl-pyridin-2-yl)-6,7,8,9-tetrahydro-5H-pyrimido[4,5-d]azepin-2-yl]-piperidin-3-ol trifluoroacetic acid salt] it was 190 nM; in that of `N#Cc1cccnc1N1CCc2ncnc(Nc3ccc(C(F)(F)F)cc3)c2CC1` [Example 293, 2-(4-{[4-(Trifluoromethyl)phenyl]amino}-5,6,8,9-tetrahydro-7H-pyrimido[4,5-d]azepin-7-yl)pyridine-3-carbonitrile], 3490 nM; in that of `FC(F)(F)c1ccc(Nc2nc(N[C@@H]3CCOC3)nc3c2CCN(c2ncccc2C(F)(F)F)CC3)nc1` [Example 263, N^2-[(3R)-Tetrahydrofuran-3-yl]-7-[3-(trifluoromethyl)pyridin-2-yl]-N^4-[5-(trifluoromethyl)pyridin-2-yl]-6,7,8,9-tetrahydro-5H-pyrimido[4,5-d]azepine-2,4-diamine], 1460 nM.
With `CN(C)c1nc2c(c(Nc3ccc(C(F)(F)F)cc3)n1)CCN(c1ncccc1C(F)(F)F)CC2` [Example 49, N^2,N^2-Dimethyl-N^4-(4-trifluoromethyl-phenyl)-7-(3-trifluoromethyl-pyridin-2-yl)-6,7,8,9-tetrahydro-5H-pyrimido[4,5-d]azepine-2,4-diamine], the IC50 is 240 nM.
Consider `FC(F)(F)c1ccc(Nc2nc(OC3CCCC3)nc3c2CCN(c2ncccc2C(F)(F)F)CC3)cc1` [Example 337, 2-(Cyclopentyloxy)-N-[4-(trifluoromethyl)phenyl]-7-[3-(trifluoromethyl)pyridin-2-yl]-6,7,8,9-tetrahydro-5H-pyrimido[4,5-d]azepin-4-amine], for which the half-inhibitory concentration (IC50) was 170 nM.
Still for that read-out and setting: in the case of `CN1CCN(c2nc3c(c(Nc4ccc(C(F)(F)F)nc4)n2)CCN(c2ncccc2C(F)(F)F)CC3)CC1` [Example 220, 2-(4-Methylpiperazin-1-yl)-7-[3-(trifluoromethyl)pyridin-2-yl]-N-[6-(trifluoromethyl)pyridin-3-yl]-6,7,8,9-tetrahydro-5H-pyrimido[4,5-d]azepin-4-amine] it was 1520 nM; in that of `COC(=O)c1ccc(Nc2nc(N3CCCCC3)nc3c2CCN(c2ncccc2C(F)(F)F)CC3)cc1F` [Example 385, 2-Fluoro-4-[2-piperidin-1-yl-7-(3-trifluoromethyl-pyridin-2-yl)-6,7,8,9-tetrahydro-5H-pyrimido[4,5-d]azepin-4-ylamino]-benzoic acid methyl ester], 820 nM.
The same measure, in the same setting: with `CC(C)(C)c1ccc(Nc2nc(-c3ccoc3)nc3c2CCN(c2ncccc2C(F)(F)F)CC3)cc1` [Example 147, N-[4-(1,1-Dimethylethyl)phenyl]-2-furan-3-yl-7-[3-(trifluoromethyl)pyridin-2-yl]-6,7,8,9-tetrahydro-5H-pyrimido[4,5-d]azepin-4-amine] the figure was 110 nM; with `CN1CCC(C)(C)c2ccc(Nc3nc(SC4CCCCC4)nc4c3CCN(c3ncccc3C(F)(F)F)CC4)cc21` [Example 371, 2-(Cyclohexylsulfanyl)-7-[3-(trifluoromethyl)pyridin-2-yl]-N-(1,4,4-trimethyl-1,2,3,4-tetrahydroquinolin-7-yl)-6,7,8,9-tetrahydro-5H-pyrimido[4,5-d]azepin-4-amine], > 6670 nM; with `CC(C)c1nc2c(c(Nc3ccc(C(F)(F)F)cn3)n1)CCN(c1ncccc1C(F)(F)F)CC2` [Example 20, [2-Isopropyl-7-(3-trifluoromethyl-pyridin-2-yl)-6,7,8,9-tetrahydro-5H-pyrimido[4,5-d]azepin-4-yl]-(5-trifluoromethyl-pyridin-2-yl)-amine], 32 nM.
As to `CN(C)CCN(C)c1nc2c(c(Nc3ccc(C(C)(C)C)cc3)n1)CCN(c1ncccc1C(F)(F)F)CC2` [Example 254, N^2-[2-(Dimethylamino)ethyl]-N^4-[4-(1,1-dimethylethyl)phenyl]-N^2-methyl-7-[3-(trifluoromethyl)pyridin-2-yl]-6,7,8,9-tetrahydro-5H-pyrimido[4,5-d]azepine-2,4-diamine], the IC50 is 100 nM.
Same read-out and setting: with `OC[C@H]1CCCN1c1nc2c(c(Nc3ccc(C(F)(F)F)cc3)n1)CCN(c1ncccc1C(F)(F)F)CC2` [Example 261, [(2R)-1-(4-{[4-(Trifluoromethyl)phenyl]amino}-7-[3-(trifluoromethyl)pyridin-2-yl]-6,7,8,9-tetrahydro-5H-pyrimido[4,5-d]azepin-2-yl)pyrrolidin-2-yl]methanol hydrochloride salt] the figure was 340 nM.
As to `FC(F)(F)c1ccc(Nc2ncnc3c2CCN(c2ncccc2C(F)(F)F)CC3)cc1` [Example 2A, (4-Trifluoromethyl-phenyl)-[7-(3-trifluoromethyl-pyridin-2-yl)-6,7,8,9-tetra-hydro-5H-pyrimido[4,5-d]azepin-4-yl]-amine hydrochloride salt], where the note is “hydrochloride salt”, the IC50 stood at 420 nM.
As to `Fc1cccnc1N1CCc2ncnc(Nc3ccc(C(F)(F)F)cc3)c2CC1` [Example 295, 7-(3-Fluoropyridin-2-yl)-N-[4-(trifluoromethyl)phenyl]-6,7,8,9-tetrahydro-5H-pyrimido[4,5-d]azepin-4-amine], the IC50 is 10400 nM.
Still for that read-out and setting: in the case of `CC(C)c1nc2c(c(Nc3ccc(C(C)(C)C)c(N)c3)n1)CCN(c1ncccc1C(F)(F)F)CC2` [Example 199, 4-(1,1-Dimethylethyl)-N1-{2-(1-methylethyl)-7-[3-(trifluoromethyl)pyridin-2-yl]-6,7,8,9-tetrahydro-5H-pyrimido[4,5-d]azepin-4-yl}benzene-1,3-diamine] it was 1360 nM; in that of `CC(C)c1nc2c(c(Nc3ccc(C(O)C(F)(F)F)cc3)n1)CCN(c1ncccc1C(F)(F)F)CC2` (centres unmarked) [Example 183, 2,2,2-Trifluoro-1-[4-({2-(1-methylethyl)-7-[3-(trifluoromethyl)pyridin-2-yl]-6,7,8,9-tetrahydro-5H-pyrimido[4,5-d]azepin-4-yl}amino)phenyl]ethanol], 2370 nM.
Still for that read-out and setting: in the case of `Cc1nc2ccccc2nc1N1CCc2nc(C(C)C)nc(Nc3ccc(C(C)(C)C)cc3)c2CC1` [Example 33, (4-tert-Butyl-phenyl)-[2-isopropyl-7-(3-methyl-quinoxalin-2-yl)-6,7,8,9-tetrahydro-5H-pyrimido[4,5-d]azepin-4-yl]-amine] it was 110 nM; in that of `CC(C)c1nc2c(c(NCc3c(Cl)cccc3Cl)n1)CCN(c1ncccc1C(F)(F)F)CC2` [Example 120, N-[(2,6-Dichlorophenyl)methyl]-2-(1-methylethyl)-7-[3-(trifluoromethyl)pyridin-2-yl]-6,7,8,9-tetrahydro-5H-pyrimido[4,5-d]azepin-4-amine], 12000 nM.
